Assay results taken from PubChem BioAssay AID1419 (Emory University Molecular Libraries Screening Center, 2008).
The source made the active and inactive calls. No rule for the calls is given here.

Test: EBV protein-peptide binding inhibitors, dose response, biochemical, fluorescence polarization (AID 1419)
Settings: cell-free protein-peptide binding, 2 h; for fold change: measured here: P channel fold over control, at 54 µM

Structure (SMILES)	IC50	fold change
C#CCn1cc(C=C2C(=O)c3ccccc3C2=O)c2ccccc21	9.87 µM	4.31
O=c1[nH]n2c(=O)c3c([nH]c2c1N=Nc1cccc(Cl)c1)CCC3	> 54 µM (inactive)	0.94
CCOc1ccccc1-c1c2cc(O)c(=O)cc-2oc2cc(O)c(O)cc12	> 54 µM (inactive)	232
CCCCNc1c2c3c(cccc3n(C)c1=O)C(=O)c1ccccc1-2	< 0.42 µM	150
CC1CCc2c(sc3nc(CN4CCOCC4)nc(NS(=O)(=O)c4cccc([N+](=O)[O-])c4)c23)C1 (stereo unspecified)	> 54 µM (inactive)	1.13
Cc1cc(-c2cccs2)c2c(N)c(C(=O)c3ccc4c(c3)OCO4)sc2n1	5.56 µM	6.29
CCCn1c(SCCc2ccccc2)nc2c1c(=O)[nH]c(=O)n2C	> 54 µM (inactive)	0.953
CCOC(=O)c1cc2n(c1N)-c1ccccc1C2=O	< 0.42 µM	104
COc1ccc(NC(=O)c2sc3nc(-c4cccnc4)ccc3c2N)cc1	2.44 µM	6.91
O=C(NNC(=O)c1sccc1-n1cccc1)c1cccc(Cl)c1	> 54 µM (inactive)	0.963
Cc1cccc2cc3c(N)c(C(=O)N4CCCc5ccccc54)sc3nc12	9.62 µM	4.66
Cc1ccc2[nH]c(O)c(N=NC(=O)c3ccc(NS(=O)(=O)c4cccs4)cc3)c2c1	> 54 µM (inactive)	0.957
Cc1ccc[n+](-c2[nH]c(=O)sc2/C=N/NC(=O)c2ccccc2[O-])c1	34.2 µM (inactive)	1.69
N#CC(c1nc2ccccc2nc1N1CCCC1)S(=O)(=O)c1ccccc1 (stereo unspecified)	> 54 µM (inactive)	1.79
O=C1Nc2cc(Cl)cnc2N2CCCC12 (stereo unspecified)	> 54 µM (inactive)	1.68
COC(=O)c1c(Cl)c2n3ccccc3c(C)c(-c3ccccc3)c-2c1C(=O)OC	2.39 µM	2.2
O=C(/C(=C(\[O-])c1ccccc1)[n+]1ccc2ccccc2c1)c1ccc(Cl)cc1	8.26 µM	2.35
COc1ccc(C2CC(c3cccs3)=NN2c2ccc(C=O)cc2)cc1 (stereo unspecified)	16.2 µM	15.4
C=CCN1C(=O)/C(=C\C=C2\N(C)c3ccccc3C2(C)C)SC1=S	5.07 µM	8.39
OCCCc1nc2n(n1)C(c1cccs1)C=C(c1ccccc1)N2 (stereo unspecified)	< 0.42 µM	43.2
Cc1cc(N2CCCC2)ccc1C=C(C#N)C#N	1.86 µM	15.3

Structure (SMILES)	IC50	fold change
Cn1c(-c2ccc(C=O)s2)nc2c3ccccc3c3ccccc3c21	4.07 µM	14.6
Cc1cccc(N2C(=O)c3cccc4c(N(C)CCO)ccc(c34)C2=O)c1	< 0.42 µM	34.9
COc1cc(C2CC(C(F)(F)F)n3ncc(C(=O)O)c3N2)cc(OC)c1OC (stereo unspecified)	> 54 µM (inactive)	0.997
CCCn1c(=C(C#N)C#N)s/c(=C2\C=Cc3ccccc3N2CC)c1=O	> 54 µM (inactive)	1.52
O=c1oc2c3c4c(cc2c(C(F)(F)F)c1CCN1CCOCC1)CCCN4CCC3	< 0.42 µM	35.9
COC(=O)C(Nc1nccs1)(OC)C(F)(F)F (stereo unspecified)	13.8 µM	2.09
CCOC(=O)/C(C#N)=C\c1ccc(N2CCN(C/C=C/c3ccccc3)CC2)cc1	18.7 µM	16
N#C/C(=C(/O)c1ccc(-c2cccc([N+](=O)[O-])c2)o1)c1nc2ccccc2s1	7.24 µM	1.09
COc1ccc(C(=O)c2sc3nc(C)cc(-c4cccs4)c3c2N)cc1	10.9 µM	10.2
O=c1[nH]c2cc3c(cc2cc1CN(Cc1nnnn1CC1CCCO1)C1CCCCC1)OCO3 (stereo unspecified)	51.6 µM (inactive)	1.73
COc1ccc(S(=O)(=O)NCCc2ccc(F)cc2)cc1	> 54 µM (inactive)	0.98
COC(=O)c1cc(C(=O)c2ccc(Cl)cc2)n2c(=O)/c(=C\N(C)C)sc12	51.9 µM (inactive)	1.56
Cc1cc(/C=C2\SC(=S)N(Cc3ccco3)C2=O)c(C)n1-c1cccnc1	8.64 µM	18.3
COc1cc(CN2CCN(c3cccc(C)c3C)CC2)cc(OC)c1O	> 54 µM (inactive)	1.03
CCCCN1C(=O)/C(=C/C=C2\N(C)c3ccccc3C2(C)C)SC1=S	2.01 µM	18.6
CCOC(=O)C(=O)/C(=C\N(C)C)c1onc(-c2ccccc2)c1C(=O)OC	> 54 µM (inactive)	1.05
COc1cc2c(cc1OC)-c1cc3ccc4c(c3c[n+]1CC2)OCO4	< 0.42 µM	11.6
Cc1ccc(N2C(=O)C3C(C(=O)c4ccccc4)=NN(c4ccccc4)C3C2=O)cc1 (stereo unspecified)	7.31 µM	8.5
Cc1cc(S(=O)(=O)Nc2nc(CN3CCOCC3)nc3sc4c(c23)CCCC4)ccc1F	> 54 µM (inactive)	1.04
CCN(CC)c1ccc(C=C2C(=O)OC(c3ccccc3)OC2=O)cc1 (stereo unspecified)	14.6 µM	10.8
Cn1nc([N+](=O)[O-])c(C(C#N)c2nc3ccccc3n2C)c(Cl)c1=O (stereo unspecified)	2.39 µM	2.35

Structure (SMILES)	IC50	fold change
Cc1ccc(OCCn2c(C3CC(=O)N(Cc4ccccc4)C3)nc3ccccc32)cc1 (stereo unspecified)	> 54 µM (inactive)	1.15
COc1ccc(OC)c(C2C3CN(C(C)C)CC=C3C(C#N)=C(N)C2(C#N)C#N)c1 (stereo unspecified)	5.91 µM	3.96
COc1ccc(OC)c(/C=C2\SC(=S)N(Cc3cccnc3)C2=O)c1	6.71 µM	5.16
CN(C)CCCN1C(=O)c2cccc3c(Br)ccc(c23)C1=O	7.44 µM	3.2
N=c1oc2cc(O)ccc2cc1C(=O)Nc1ccccn1	6.67 µM	5.39
Cc1c(C(=O)NCCSCc2c(F)cccc2Cl)cnn1-c1ccc(Cl)cc1	> 54 µM (inactive)	1.06
Cc1ccc(C(NC(=O)C2CCCCC2)c2c(O)ccc3ccccc23)cc1 (stereo unspecified)	> 54 µM (inactive)	1.03
NS(=O)(=O)c1ccc(N/N=C/c2ccc(O)c(O)c2O)c([N+](=O)[O-])c1	3.19 µM	1.05
C/C(=N/OC(=O)c1c(-c2c(Cl)cccc2Cl)noc1C)c1cnccn1	> 54 µM (inactive)	0.997
O=C1C(Br)=Cc2cccc3cccc1c23	2 µM	7.55
Nc1ccc(O)c2c1C(=O)c1ccccc1C2=O	3.1 µM	2.55
C=CCn1c(O)c(N=Nc2ccccc2C)c2ccccc21	14.9 µM	12.4
N#C/C(=C/c1ccc(-c2ccc(S(N)(=O)=O)cc2)o1)c1nc2ccccc2s1	> 54 µM (inactive)	30.3
C(=N\NC1=Nc2cccc3cccc1c23)/c1ccccc1	16.9 µM	11.4
CSc1c(C#N)c(N)nc2sc(C(=O)c3ccc(Cl)c(Cl)c3)c(N)c12	1.74 µM	9.22
Nc1cc2nc3ccccc3nc2cc1N	< 0.42 µM	24.2
COC(=O)C1C=C2c3cccc4[nH]cc(c34)CC2N(C)C1 (stereo unspecified)	1.66 µM	6.81
NC(=O)c1sc2nc3c(c(-c4ccccc4)c2c1N)CCC3	> 54 µM (inactive)	0.963
Nc1ccc(N)c(C(=O)O)c1	3.76 µM	2.6
Cc1ccn(C(=O)c2ccc(NC(=O)C3CCCCC3)cc2)n1	> 54 µM (inactive)	0.987
Cc1oc2cc(O)ccc2c(=O)c1-c1nncn1-c1ccccc1	0.46 µM	10.9

Structure (SMILES)	IC50	fold change
CC(C)(C)NC(=O)c1sccc1C(=O)O	> 54 µM (inactive)	1.06
COc1ccc(OC)c2c1C(=O)c1ccccc1C2=O	< 0.42 µM	41.6
Cc1ccc(N=Nc2c(O)n(CN3CCOCC3)c3ccccc23)cc1	2.43 µM	10.9
COc1ccc(-n2cccc2/C=C2\C(=N)N3N=C(c4ccco4)SC3=NC2=O)cc1	2.85 µM	1.17
CCN(CC)c1ccc(/C=c2\sc3nnc(-c4ccccc4Cl)n3c2=O)cc1	2.65 µM	16.1
Cc1ccccc1N1C(=O)NC(=O)/C(=C\c2ccc3c(c2)CCCN3Cc2ccccc2)C1=O	3.61 µM	10.3
O=C1Nc2ccccc2/C1=C/c1cnc(-c2ccccc2)[nH]1	4.23 µM	14.6
COc1ccc(C(=O)c2sc3nc(C)cc(-c4cccs4)c3c2N)cc1OC	16.5 µM	7.43
CC(=O)Nc1ccc2cc3ccc(NC(C)=O)cc3nc2c1	0.56 µM	12.5
CC(=O)Oc1ccc2c(c1)O/C(=C\c1ccncc1)C2=O	3.08 µM	10.9
CCOc1cccc(C2C(C(=O)c3ccc(C)o3)=C(O)C(=O)N2c2nccs2)c1 (stereo unspecified)	< 0.42 µM	8.6
COc1cc(C2C=C(c3cccs3)Nc3ncnn32)cc(OC)c1OC (stereo unspecified)	< 0.42 µM	13.5
Cc1cccc(C)c1NC(=O)COC(=O)c1c2c(nc3ccccc13)/C(=C\c1ccc3c(c1)OCO3)CCC2	> 54 µM (inactive)	1.32
CCN(CC)c1ccc2cc(S(=O)(=O)c3ccc(Cl)cc3)c(=O)oc2c1	6.12 µM	98.4
Oc1c(Cl)cc(Cl)c(Cl)c1Cc1c(O)c(Cl)cc(Cl)c1Cl	5.97 µM	0.987
CCOC(=O)c1c(/N=C/c2c(O)n(-c3ccccc3F)c(=S)[nH]c2=O)sc2c1CCCC2	2.97 µM	29.6
O=C(Nc1ccncc1)Nc1ccc(F)cc1F	> 54 µM (inactive)	1.04
Cc1ccc(/C=C2\Sc3ccccc3C2=O)s1	> 54 µM (inactive)	1.61
O=C(Cn1c2ccccc2c(=O)c2ccccc21)N/N=C/c1ccc(N2CCCC2)c([N+](=O)[O-])c1	> 54 µM (inactive)	0.76
Cc1c2ccccc2nc2c(F)c(N(C)C)c(F)c(F)c12	< 0.42 µM	8.81
